# In patent US4312874A, “Antibacterial compounds, processes for their preparation and compositions containing them” (Beecham Group Limited, priority 1979, dated 1982):
# Read-outs that look alike come from different tables or passages of the source.
# Experiments:
# [1] = tested on: Strep. dysgalactiae SPD1; test: MIC by agar dilution, veterinary bacteria; conditions: Streptococcus dysgalactiae, SPD1, 24 h
# [2] = tested on: Staph. aureus B4 (pen resis); test: MIC by agar dilution, veterinary bacteria; conditions: Staphylococcus aureus, 24 h
# [3] = tested on: Strep. pyogenes A 64/848; test: MIC by serial dilution in nutrient agar with 5% chocolated horse blood; assay type: cell-based; conditions: Streptococcus pyogenes, A64/848; Table 1
# [4] = tested on: Sarcina lutea 8340; test: as above; assay type: cell-based; conditions: Micrococcus luteus
# [5] = tested on: E. coli NCTC 10418; test: as above; assay type: cell-based; conditions: Escherichia coli, NCTC10418
# [6] = tested on: M. suipneumoniae JF 435; test: in vitro MIC by serial dilution in Friis modified agarose medium; assay type: cell-based; conditions: Mesomycoplasma hyopneumoniae, JF435; Table 3
# [7] = tested on: Bord. bronchiseptica B08; test: MIC by agar dilution, veterinary bacteria; conditions: Bordetella bronchiseptica, B08, 24 h
# [8] = tested on: E. coli NCTC 10418; test: MIC by agar dilution, veterinary bacteria; conditions: Escherichia coli, NCTC10418, 24 h
# [9] = Mouse blood levels of Example 1 following oral and subcutaneous administration; assay type: in vivo, albino male mice; conditions: read-out: blood conc.; for concentration at 0.5 h: 30 min; for concentration at 1 h: 60 min; for concentration at 2 h: 120 min; for concentration at 4 h: 240 min
# Description: Mouse blood levels of Example 1 following its oral and subcutaneous administration
# Blood levels were assessed in albino male mice (18-22 g CSI). The dose was 50 mg/kg administered in a 10% DMF solution orally and subcutaneously. The mice were killed at intervals up to 4 hours and the blood assayed microbiologically using B. subtilis.
# [10] = tested on: Strep. suis (group D) SPS11; test: MIC by agar dilution, veterinary bacteria; conditions: Streptococcus suis, 24 h
# [11] = tested on: M. suipneumoniae UCD 1; test: in vitro MIC by serial dilution in Friis modified agarose medium; assay type: cell-based; conditions: Mesomycoplasma hyopneumoniae, UCD1; Table 3
# [12] = tested on: Strep. pneumoniae CN33; test: MIC by serial dilution in nutrient agar with 5% chocolated horse blood; assay type: cell-based; conditions: Streptococcus pneumoniae, Table 1
# [13] = tested on: S.dublin S7; test: MIC by agar dilution, veterinary bacteria; conditions: Salmonella enterica, S7, 24 h
# [14] = tested on: M. suipneumoniae PW/C/210; test: in vitro MIC by serial dilution in Friis modified agarose medium; assay type: cell-based; conditions: Mesomycoplasma hyopneumoniae; Table 3
# [15] = tested on: M. hyorhinis ATCC 25021; test: as above; assay type: cell-based; conditions: Mesomycoplasma hyorhinis, ATCC25021; Table 3
# [16] = tested on: M. dispar NCTC 10125; test: as above; assay type: cell-based
# [17] = tested on: Staph. aureus W2827; test: MIC by serial dilution in nutrient agar with 5% chocolated horse blood; assay type: cell-based; conditions: Staphylococcus aureus, Table 1
# [18] = tested on: E. coli ESS; test: as above; assay type: cell-based; conditions: Escherichia coli; Table 1
# [19] = tested on: Staph. aureus Oxford; test: MIC by agar dilution, veterinary bacteria; conditions: Staphylococcus aureus, 24 h
# [20] = Mean serum concentrations in neonatal piglets after intramuscular or oral administration; assay type: in vivo; conditions: pig; for concentration at 1 h: 60'
# Description: Mean serum concentrations in neonatal piglets of Example 3 after intramuscular or oral administration at 50 mg/kg
# Blood levels were assessed in neonatal piglets (mean bodyweight ca. 3 kg). The dose was 50 mg/kg administered as a 25 mg/ml of 25% aqueous ethanol solution. Doses were given by intramuscular injection and orally by stomach tube. Piglets were bled at intervals up to 24 hr and the serum assayed microbiologically using B. subtilis ATCC 6633.
# [21] = Mean serum concentrations in milk weaned piglets after oral administration; assay type: in vivo; conditions: pig, p.o. 50 mg/kg
# Description: Mean serum concentrations in milk weaned piglets of Example 3 after oral administration at 50 mg/kg
# Blood levels were assessed in milk weaned piglets (mean bodyweight 4.1 kg). The dose was 50 mg/kg administered orally (intubation) as a 25 mg/ml of 25% aqueous ethanol solution. Piglets were bled at intervals up to […] and the serum assayed microbiologically using B. subtilis ATCC 6633.
# [22] = Mouse blood levels of Example 3 following oral and subcutaneous administration; assay type: in vivo, albino male mice (strain OLAC: MF-1); conditions: read-out: blood conc.; for concentration at 0.5 h: 30 min; for concentration at 0.75 h: 45 min; for concentration at 1 h: 60 min; for concentration at 1.5 h: 90 min
# Description: Mouse blood levels of Example 3 following its oral and subcutaneous administration
# Blood levels were assessed in albino male mice (strain OLAC: MF-1, 18-22 g). The dose was 50 mg/kg administered in a 10% ethanol solution orally and subcutaneously. The mice were killed at intervals up to 90 min and the blood assayed microbiologically using B. subtilis ATCC 6633 in TSA at pH 8.0.
smiles,measurement,setting,value
"CC(=O)C=C(C)CC1OCC(CC2OC2C(C)C(C)O)C(O)C1O [Example 1, 1-[3R,4R-Dihydroxy-5S-(2S,3S-epoxy-5S-hydroxy-4S-methylhexyl)-2,3,5,6-tetrahydropyran-2-S-yl]-2-methylpent-2E-en-4-one]",MIC,[1],80 µg/mL
same,MIC,[2],10 µg/mL
same,MIC,[3],50 µg/mL
same,MIC,"[4]; Table 1, read-out: MIC",> 100 µg/mL
same,MIC,"[5]; Table 1, read-out: MIC",> 100 µg/mL
same,MIC,[6],10 µg/mL
same,MIC,[7],> 80 µg/mL
same,MIC,[8],> 80 µg/mL
same,concentration at 5 min,[9]; oral 50 mg/kg,5900 ng/mL
same,concentration at 10 min,[9]; oral 50 mg/kg,7700 ng/mL
same,concentration at 20 min,[9]; oral 50 mg/kg,4800 ng/mL
same,concentration at 0.5 h,[9]; oral 50 mg/kg,< 3000 ng/mL
same,concentration at 1 h,[9]; oral 50 mg/kg,< 3000 ng/mL
same,concentration at 2 h,[9]; oral 50 mg/kg,< 3000 ng/mL
same,concentration at 4 h,[9]; oral 50 mg/kg,< 3000 ng/mL
same,concentration at 5 min,"[9]; sc, subcutaneous 50 mg/kg",16400 ng/mL
same,concentration at 10 min,"[9]; sc, subcutaneous 50 mg/kg",15300 ng/mL
same,concentration at 20 min,"[9]; sc, subcutaneous 50 mg/kg",9800 ng/mL
same,concentration at 0.5 h,"[9]; sc, subcutaneous 50 mg/kg",5000 ng/mL
same,concentration at 1 h,"[9]; sc, subcutaneous 50 mg/kg",< 3000 ng/mL
same,concentration at 2 h,"[9]; sc, subcutaneous 50 mg/kg",< 3000 ng/mL
same,concentration at 4 h,"[9]; sc, subcutaneous 50 mg/kg",< 3000 ng/mL
same,MIC,[10],> 80 µg/mL
same,MIC,[11],> 10 µg/mL
same,MIC,[12],25 µg/mL
same,MIC,[13],> 80 µg/mL
same,MIC,[14],10 µg/mL
same,MIC,[15],10 µg/mL
same,MIC,"[16]; Table 3, read-out: MIC",2.5 µg/mL
same,MIC,[17],> 100 µg/mL
same,MIC,[18],10 µg/mL
"CCC(=O)C=C(C)CC1OCC(CC2OC2C(C)C(C)O)C(O)C1O [Example 2, 1-[3R,4R-Dihydroxy-5S-(2S,3S-epoxy-5-S-hydroxy-4S-methylhexyl)tetrahydropyran-2S-yl]-2-methylhex-2E-en-4-one]",MIC,[1],20 µg/mL
same,MIC,[2],0.625 µg/mL
same,MIC,[3],12.5 µg/mL
same,MIC,[19],0.312 µg/mL
same,MIC,[4],> 50 µg/mL
same,MIC,[5],> 50 µg/mL
same,MIC,[6],5 µg/mL
same,MIC,[7],> 40 µg/mL
same,MIC,[8],> 40 µg/mL
same,MIC,[10],> 40 µg/mL
same,MIC,[11],5 µg/mL
same,MIC,[12],12.5 µg/mL
same,MIC,[13],> 40 µg/mL
same,MIC,[14],2.5 µg/mL
same,MIC,[15],2.5 µg/mL
same,MIC,[16],0.5 µg/mL
same,MIC,[17],2.5 µg/mL
"CCCCC(=O)C=C(C)CC1OCC(CC2OC2C(C)C(C)O)C(O)C1O [Example 3, 1-[3R,4R-Dihydroxy-5S-(2S,3S-epoxy-5S-hydroxy-4S-methylhexyl)tetrahydropyran-2S-yl]-2-methyloct-2E-en-4-one]",MIC,[1],10 µg/mL
same,MIC,[2],2.5 µg/mL
same,MIC,[19],2.5 µg/mL
same,MIC,"[4]; Table 1, read-out: MIC",> 100 µg/mL
same,MIC,"[5]; Table 1, read-out: MIC",> 100 µg/mL
same,MIC,[6],1 µg/mL
same,concentration at 10 min,"[20]; im, i.m. 50 mg/kg",8500 ng/mL
same,concentration at 20 min,"[20]; im, i.m. 50 mg/kg",7900 ng/mL
same,concentration at 40 min,"[20]; im, i.m. 50 mg/kg",5100 ng/mL
same,concentration at 1 h,"[20]; im, i.m. 50 mg/kg",4300 ng/mL
same,concentration at 2 h,"[20]; im, i.m. 50 mg/kg",1300 ng/mL
same,concentration at 3 h,"[20]; im, i.m. 50 mg/kg",1200 ng/mL
same,concentration at 4 h,"[20]; im, i.m. 50 mg/kg",< 70 ng/mL
same,concentration at 10 min,"[20]; po, p.o. 50 mg/kg",3100 ng/mL
same,concentration at 20 min,"[20]; po, p.o. 50 mg/kg",2000 ng/mL
same,concentration at 40 min,"[20]; po, p.o. 50 mg/kg",1400 ng/mL
same,concentration at 1 h,"[20]; po, p.o. 50 mg/kg",830 ng/mL
same,concentration at 2 h,"[20]; po, p.o. 50 mg/kg",700 ng/mL
same,concentration at 3 h,"[20]; po, p.o. 50 mg/kg",600 ng/mL
same,concentration at 4 h,"[20]; po, p.o. 50 mg/kg",< 70 ng/mL
same,MIC,[7],> 80 µg/mL
same,MIC,[8],> 80 µg/mL
same,concentration at 10 min,[21]; 10',2100 ng/mL
same,concentration at 20 min,[21]; 20',1900 ng/mL
same,concentration at 40 min,[21]; 40',720 ng/mL
same,concentration at 1 h,[21]; 60',1100 ng/mL
same,concentration at 2 h,[21]; 2 hr,480 ng/mL
same,concentration at 3 h,[21]; 3 hr,370 ng/mL
same,concentration at 4 h,[21]; 4 hr,200 ng/mL
same,concentration at 6 h,[21]; 6 hr,110 ng/mL
same,concentration at 8 h,[21]; 8 hr,< 60 ng/mL
same,MIC,[10],> 80 µg/mL
same,MIC,[11],1 µg/mL
same,MIC,[12],5 µg/mL
same,MIC,[13],> 80 µg/mL
same,MIC,[14],0.5 µg/mL
same,MIC,[15],0.5 µg/mL
same,MIC,"[16]; Table 3, read-out: MIC",0.25 µg/mL
same,concentration at 5 min,[22]; oral 50 mg/kg,9400 ng/mL
same,concentration at 10 min,[22]; oral 50 mg/kg,5100 ng/mL
same,concentration at 20 min,[22]; oral 50 mg/kg,< 1500 ng/mL
same,concentration at 0.5 h,[22]; oral 50 mg/kg,< 1500 ng/mL
same,concentration at 0.75 h,[22]; oral 50 mg/kg,< 1500 ng/mL
same,concentration at 1 h,[22]; oral 50 mg/kg,< 1500 ng/mL
same,concentration at 1.5 h,[22]; oral 50 mg/kg,< 1500 ng/mL
same,concentration at 5 min,"[22]; sc, subcutaneous 50 mg/kg",19800 ng/mL
same,concentration at 10 min,"[22]; sc, subcutaneous 50 mg/kg",15500 ng/mL
same,concentration at 20 min,"[22]; sc, subcutaneous 50 mg/kg",7300 ng/mL
same,concentration at 0.5 h,"[22]; sc, subcutaneous 50 mg/kg",2200 ng/mL
same,concentration at 0.75 h,"[22]; sc, subcutaneous 50 mg/kg",< 1500 ng/mL
same,concentration at 1 h,"[22]; sc, subcutaneous 50 mg/kg",< 1500 ng/mL
same,concentration at 1.5 h,"[22]; sc, subcutaneous 50 mg/kg",< 1500 ng/mL
same,MIC,[17],2.5 µg/mL
same,MIC,[18],1 µg/mL
